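1) Cells in 96-well plates. 2) Compound, 48 h, 5 concentrations. 3) Linear interpolation between surrounding doses. 4) Unreached endpoint = highest concentration. The concentration for 50% growth inhibition is given as GI50.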 Activity calls are given as the source filed them. Cut-off read from the data, not from the text of the source: active = GI50 up to about 1.1 µM and inactive = higher.
Columns and labels:
Experiment in all cases: inhibition of tumour cell growth, NCI panel, 48 h
Hs-578T = tested on: Hs-578T
OVCAR-4 = tested on: OVCAR-4
NCI/ADR-RES = tested on: NCI/ADR-RES
U-251 = tested on: U-251
UACC-62 = tested on: UACC-62
RXF 393 = tested on: RXF 393
SNB-75 = tested on: SNB-75
MDA-MB-435 = tested on: MDA-MB-435
T47D = tested on: T47D
A498 = tested on: A498
SF-295 = tested on: SF-295
ACHN = tested on: ACHN
SK-MEL-28 = tested on: SK-MEL-28
HCT-116 = tested on: HCT-116
Malme-3M = tested on: Malme-3M
SK-MEL-5 = tested on: SK-MEL-5
IGROV-1 = tested on: IGROV-1
UACC-257 = tested on: UACC-257
NCI-H226 = tested on: NCI-H226
CCRF-CEM = tested on: CCRF-CEM

Measured: GI50

CC12CCC(C1)C(C)(C)C2OC(=O)c1ccccc1C(=O)O (stereo not given)
inactive: Hs-578T 8.97 µM | OVCAR-4 > 100 µM | NCI/ADR-RES > 100 µM | U-251 > 100 µM | UACC-62 > 100 µM | RXF 393 > 100 µM | SNB-75 > 100 µM | MDA-MB-435 > 100 µM | T47D > 100 µM | A498 > 100 µM | SF-295 > 100 µM | ACHN > 100 µM | SK-MEL-28 > 100 µM | HCT-116 > 100 µM | Malme-3M > 100 µM | SK-MEL-5 > 100 µM | IGROV-1 > 100 µM | UACC-257 > 100 µM | NCI-H226 > 100 µM

Clc1ccc(-c2ccc(-c3nnc(COc4ccc(OCc5nnc(-c6ccc(-c7ccc(Cl)cc7Cl)o6)o5)c(Cl)c4)o3)o2)c(Cl)c1
inactive: Hs-578T 83 µM | OVCAR-4 > 100 µM | NCI/ADR-RES > 100 µM | U-251 40 µM | UACC-62 > 100 µM | RXF 393 16.2 µM | MDA-MB-435 > 100 µM | T47D > 100 µM | CCRF-CEM 32.4 µM | A498 > 100 µM | SF-295 > 100 µM | ACHN > 100 µM | SK-MEL-28 > 100 µM | HCT-116 > 100 µM | SK-MEL-5 > 100 µM | IGROV-1 > 100 µM | UACC-257 > 100 µM | NCI-H226 > 100 µM

C=C(C)[C@@]1(O[Si](C)(C)C)CCCC[C@@H]1CC(Sc1ccccc1)Sc1ccccc1
inactive: Hs-578T 13.4 µM | OVCAR-4 12.6 µM | NCI/ADR-RES 13.8 µM | U-251 16 µM | UACC-62 13.2 µM | RXF 393 10.8 µM | SNB-75 12.1 µM | MDA-MB-435 15.6 µM | T47D 4.26 µM | CCRF-CEM 14.4 µM | A498 19.9 µM | SF-295 12.4 µM | ACHN 15.4 µM | SK-MEL-28 18.3 µM | Malme-3M 12.1 µM | SK-MEL-5 16.3 µM | IGROV-1 15.6 µM | UACC-257 15.3 µM | NCI-H226 16.1 µM

CC(=O)N[C@@H](Cc1ccc(O)cn1)C(=O)NCc1cccc(F)c1
inactive: Hs-578T > 100 µM | OVCAR-4 > 100 µM | NCI/ADR-RES > 100 µM | U-251 > 100 µM | UACC-62 > 100 µM | RXF 393 > 100 µM | MDA-MB-435 > 100 µM | T47D > 100 µM | CCRF-CEM > 100 µM | A498 > 100 µM | SF-295 > 100 µM | ACHN > 100 µM | SK-MEL-28 > 100 µM | HCT-116 > 100 µM | Malme-3M > 100 µM | SK-MEL-5 > 100 µM | IGROV-1 > 100 µM | UACC-257 > 100 µM | NCI-H226 > 100 µM

C=C1C(C2(C)C=CC(=O)OC3(C)COC(=O)CC32)C(OC=O)C(OC(=O)C(O)C(C)CC)C2(C)C(c3ccoc3)CC(OC(C)=O)C12O (stereo not given)
inactive: Hs-578T > 100 µM | NCI/ADR-RES > 100 µM | U-251 > 100 µM | UACC-62 35.6 µM | RXF 393 > 100 µM | SNB-75 50.5 µM | MDA-MB-435 40 µM | T47D > 100 µM | CCRF-CEM 35 µM | A498 > 100 µM | SF-295 84.1 µM | ACHN 75.9 µM | SK-MEL-28 > 100 µM | HCT-116 49 µM | SK-MEL-5 35 µM | IGROV-1 93.5 µM | UACC-257 > 100 µM | NCI-H226 > 100 µM

COC(=O)NN=C(c1ccc(Cl)cc1)c1ccc(Cl)cc1
inactive: Hs-578T > 100 µM | OVCAR-4 40.3 µM | NCI/ADR-RES > 100 µM | U-251 > 100 µM | UACC-62 > 100 µM | RXF 393 22.4 µM | SNB-75 87.9 µM | MDA-MB-435 > 100 µM | T47D > 100 µM | CCRF-CEM 67.6 µM | A498 17.9 µM | SK-MEL-28 > 100 µM | HCT-116 > 100 µM | Malme-3M > 100 µM | SK-MEL-5 > 100 µM | IGROV-1 22.9 µM | UACC-257 > 100 µM | NCI-H226 > 100 µM

COc1ccccc1C1(c2c(OC(C)C)c(=O)c2=O)SCCCS1
inactive: Hs-578T > 100 µM | OVCAR-4 > 100 µM | NCI/ADR-RES > 100 µM | U-251 > 100 µM | UACC-62 > 100 µM | RXF 393 > 100 µM | SNB-75 90.4 µM | MDA-MB-435 > 100 µM | T47D > 100 µM | CCRF-CEM 40.5 µM | A498 > 100 µM | SF-295 > 100 µM | ACHN > 100 µM | SK-MEL-28 87.1 µM | HCT-116 > 100 µM | SK-MEL-5 > 100 µM | IGROV-1 > 100 µM | UACC-257 > 100 µM | NCI-H226 > 100 µM

O=C1CC(NC(=O)C(F)(F)F)c2c(Br)sc(N3CCC(c4ccccc4)CC3)c21 (stereo not given)
inactive: Hs-578T 20 µM | OVCAR-4 11.5 µM | NCI/ADR-RES 69 µM | U-251 6.76 µM | UACC-62 20.4 µM | RXF 393 17 µM | SNB-75 69.3 µM | MDA-MB-435 > 100 µM | T47D 4.45 µM | CCRF-CEM 4.05 µM | A498 > 100 µM | SF-295 4.48 µM | ACHN 28.1 µM | HCT-116 11.1 µM | Malme-3M > 100 µM | SK-MEL-5 6.03 µM | IGROV-1 > 100 µM | UACC-257 13.4 µM | NCI-H226 28.4 µM

c1ccc(C2=NN=C3C(c4ccccc4)=Nc4ccccc4N3C2)cc1
inactive: Hs-578T 26.6 µM | OVCAR-4 4.58 µM | NCI/ADR-RES 14.7 µM | U-251 14.3 µM | UACC-62 30.3 µM | RXF 393 10.1 µM | MDA-MB-435 17.7 µM | T47D 36.7 µM | CCRF-CEM 1.69 µM | A498 > 80.2 µM | ACHN 34.4 µM | SK-MEL-28 34.7 µM | HCT-116 10.8 µM | Malme-3M 26 µM | SK-MEL-5 14.1 µM | IGROV-1 26.5 µM | UACC-257 7.55 µM | NCI-H226 14.9 µM

O=[N+]([O-])c1ccc(Oc2c(Cl)cc(S(=O)(=O)N/C(=N\O)Nc3ccc(Cl)cc3)cc2Cl)c(Cl)c1
inactive: Hs-578T 13.7 µM | OVCAR-4 11.7 µM | NCI/ADR-RES 21.7 µM | U-251 15.4 µM | UACC-62 14.4 µM | RXF 393 13.2 µM | MDA-MB-435 16.6 µM | T47D 13.1 µM | CCRF-CEM 27.3 µM | A498 12.7 µM | SF-295 17.3 µM | ACHN 15 µM | SK-MEL-28 21.6 µM | HCT-116 13.4 µM | Malme-3M 14.6 µM | SK-MEL-5 16.9 µM | UACC-257 15.6 µM | NCI-H226 25.3 µM
